Tests used:
Coagulation factor XII = biological target: T1, Coagulation factor XII (Homo sapiens, UniProt P00748); test: Protease Inhibition Assay; conditions: pH 7.4
T1 sequence (P00748 whole entry): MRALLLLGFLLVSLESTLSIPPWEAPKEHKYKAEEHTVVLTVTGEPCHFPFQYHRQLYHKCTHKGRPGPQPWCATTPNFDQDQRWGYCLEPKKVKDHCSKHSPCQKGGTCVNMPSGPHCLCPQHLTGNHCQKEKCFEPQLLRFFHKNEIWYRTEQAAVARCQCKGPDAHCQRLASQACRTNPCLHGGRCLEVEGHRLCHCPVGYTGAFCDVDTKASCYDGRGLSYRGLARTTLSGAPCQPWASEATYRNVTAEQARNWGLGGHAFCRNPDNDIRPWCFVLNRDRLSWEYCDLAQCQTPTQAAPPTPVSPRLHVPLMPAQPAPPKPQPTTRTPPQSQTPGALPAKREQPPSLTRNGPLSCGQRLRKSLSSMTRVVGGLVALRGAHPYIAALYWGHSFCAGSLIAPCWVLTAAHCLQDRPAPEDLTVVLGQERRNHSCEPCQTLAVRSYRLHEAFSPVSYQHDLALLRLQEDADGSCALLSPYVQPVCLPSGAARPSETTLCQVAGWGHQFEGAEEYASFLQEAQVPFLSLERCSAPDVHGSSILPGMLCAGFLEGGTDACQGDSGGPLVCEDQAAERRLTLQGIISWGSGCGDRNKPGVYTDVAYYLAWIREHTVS
Protocol: (§1) The inhibition of plasma kallikrein and coagulation factor FXII was assessed by incubating the proteases with bicyclic peptide (twofold dilutions) and measuring the residual protease activity with fluorogenic substrates. The inhibition assays were performed in buffer ([…]) containing Tris HCl (pH 7.4, 10 mm), NaCl (150 mm), MgCl2 (10 mm), CaCl2 (1 mm), bovine serum albumin (BSA, 0.1 %, w/v), Triton-X100 (0.01%, v/v), and DMSO (5 %, v/v). Final concentrations of human plasma kallikrein (Innovative Research) and human FXII (Innovative Research)were 0.25 nm and 10 nm, respectively. The fluorogenic substrates Z-Phe-Arg-AMC (plasma kallikrein) and Z-Gly-Gly-Arg-AMC (FXII) were used at a final concentration of […]. Fluorescence intensity was measured with a Tecan Infinite M 200 Pro plate reader (λex= 368 nm, λem=468 nm).

Plasma kallikrein = Plasma kallikrein (Human, UniProt P03952); test: Protease Inhibition Assay; conditions: pH 7.4
Sequence of Plasma kallikrein (P03952 20-390 S143N limits assumed): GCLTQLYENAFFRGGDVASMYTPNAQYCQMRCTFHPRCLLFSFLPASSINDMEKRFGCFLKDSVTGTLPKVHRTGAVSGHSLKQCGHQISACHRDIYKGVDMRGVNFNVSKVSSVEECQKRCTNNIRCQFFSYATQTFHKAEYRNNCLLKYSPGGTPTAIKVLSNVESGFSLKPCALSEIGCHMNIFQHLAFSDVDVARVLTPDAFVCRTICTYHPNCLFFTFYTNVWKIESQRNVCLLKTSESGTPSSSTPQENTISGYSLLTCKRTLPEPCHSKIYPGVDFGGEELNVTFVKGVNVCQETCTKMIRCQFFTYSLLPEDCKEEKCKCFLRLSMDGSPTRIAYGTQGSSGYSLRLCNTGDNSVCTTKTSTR
Sequence of Plasma kallikrein (P03952 391-638 limits assumed): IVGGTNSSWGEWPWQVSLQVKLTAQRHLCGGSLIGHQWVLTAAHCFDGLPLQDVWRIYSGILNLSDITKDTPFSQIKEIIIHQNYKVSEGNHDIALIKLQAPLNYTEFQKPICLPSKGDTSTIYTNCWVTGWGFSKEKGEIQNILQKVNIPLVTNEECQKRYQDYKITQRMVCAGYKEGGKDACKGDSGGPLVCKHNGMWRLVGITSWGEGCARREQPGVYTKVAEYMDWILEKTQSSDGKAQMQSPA
Protocol: as §1

Row | SMILES | Ki (Coagulation factor XII) [nM] | Ki (Plasma kallikrein) [nM]
1 | CSCCC(=O)N1CN(C(=O)CCSC)CN(C(=O)CCSC)C1 [TATA-FXII618 (14)] | 25 | –
2 | CSCC(=O)N1CN(C(=O)CSC)CN(C(=O)CSC)C1 [TATB-FXII618 (15)] | 340 | 540
3 | CSCc1cc(CSC)cc(CSC)c1 [TBMB-PK15 (10)] | – | 1.3
4 | CSCc1nc(CSC)nc(CSC)n1 [TBMT-FX618 (16)] | 1220 | 20

Reference: BindingDB's records for doi:10.1002/cbic.201600612 (University of Glasgow, 2017)
